Data set [1] can be described thus: Release of drug from hydrogel lens in contact with the cornea. It counts as in vivo. Conditions: after 2 hours of contact with the cornea; lens with about 700 ng beclomethasone or 450 ng prednisolone. As for the experimental part:
In some embodiments, such as with classes of corticosteroids, a single hydrogel contact lens may be loaded with about […] of active compound. For instance, experiments have shown that an effective concentration of beclomethasone can be delivered to the posterior segment by treating with a lens that includes about 700 ng of the compound. […] In each case, about 95% of the drug exited the lens after 2 hours of contact with the cornea. It is believed that the consistent pore size of the hydrogels provides for a consistent delivery rate of a variety of compounds.

The conditions of data set [2]: rabbit, in vivo.
Experimental: A series of experiments were designed to determine the efficacy of delivery to the posterior segment from a hydrogel positioned on the cornea.
In the first experiment, rabbits were treated by placing hydrogel lenses on the corneas of the animals for a period of 3 hours. Each lens was infused with about 450 ng of prednisolone incorporated therein. The lenses were placed onto the eyes of anesthetized animals (closed eye period) for the three hour period after which time the lenses were removed. The procedure was repeated about every other day or every three days until 5 applications had been completed.
After completion of the five applications, each eye of the animal was analyzed for prednisolone concentration using LC/MS/MS. The portion of the posterior segment that was analyzed included macula, retina, surrounding muscle, nerve and circulatory, including connective tissues and cells. Sample size typically was about 800 mg. […] The limit of quantification for prednisolone was 0.5 ng/mL and for prednisone was 0.05 ng/mL.

`C[C@H]1C[C@H]2[C@@H]3CCC4=CC(=O)C=C[C@]4(C)[C@@]3(Cl)[C@@H](O)C[C@]2(C)[C@@]1(O)C(=O)CO` [Beclomethasone, beclomethasone]: the “drug exited the lens” value in data set [1] is listed as “about 95%”.

As for `C[C@]12C=CC(=O)C=C1CC[C@@H]1[C@@H]2[C@@H](O)C[C@@]2(C)[C@H]1CC[C@]2(O)C(=O)CO` [Prednisolone, prednisolone], the “average concentration in the posterior segment relative to the amount provided in the hydrogel lenses” value in data set [2] is reported as “greater than 10%”. Further, in data set [1], the “drug exited the lens” value was “about 95%”.

(Values after patent publication US9216106B2, “Device and method for the delivery of drugs for the treatment of posterior segment disease” (DIRECTCONTACT LLC, priority 2003, dated 2015).)
